Patent US9352010B2, “Treatment of HIV-1 infection and AIDS” (The J. David Gladstone Institutes, priority 2011, dated 2016)

Key:
[1] = test system: IL-1β; assay: Release of 17-kDa IL-1β from isolated tonsillar CD4 T-cells (ionophore stimulus); format: cell-based, human; conditions: nigericin 10 μM
Protocol: For stimulating the processing and secretion of IL-1, CD4 T-cells were isolated from HLACs by positive selection and treated with 0.5 μM PMA ([…], Calbiochem Cat. #524400) for 6 hours at 37° C. PMA induces large intracellular stores of the 35 kDa pro-IL-1β. Cells were then washed with PBS and treated with 10 μM nigericin (Sigma, Cat. # N7143) overnight at 37° C. The potassium ionophore nigericin mediates an elecroneutral exchange of intracellular K^+ ions for extracellular protons, providing a second inflammatory stimulus, which results in the maturation and release of the bioactive 17 kDa IL-1β(Perregaux et al., 1992, J Immunol 149:1294-1303; Perregaux and Gabel, 1994, J Biol Chem 269:15195-15203).
Isolated tonsillar CD4 T-cells were treated overnight with nigericin (10 μM) to provide a second inflammatory stimulus, resulting in maturation and release of bioactive 17-kDa IL-1β. Supernatants from the cell cultures were subjected to SDS-PAGE and immunoblotting. 17-kDa IL-1β was released after treatment with nigericin, but not with calcium ionophore A23187 or the nonspecific cation ionophore monensin. Thus, while these cells are primed, they must receive the appropriate proinflammatory signal for pro-IL-1β processing and release. […]

[2] = test system: CFSE-labeled CD4 T-cells; format: cell-based, human; conditions: for indirect killing (loss) of resting CFSE-labeled CD4 T-cells: NL4-3-infected effector cells
Protocol: (A) Experimental strategy to assess indirect cell killing in HIV-1-infected human lymphoid cultures. Fresh human tonsil tissue from a single donor is processed into HLAC, and then separated into two fractions. One fraction is challenged with HIV-1 and cultured for 6 days, allowing viral spread. On day 5, the uninfected fraction is treated with AZT (5 μM) and labeled with CFSE (1 μM). On day 6, the infected and CFSE-labeled (i.e., uninfected) cultures are mixed and co-cultured in the presence of AZT. […] After 6 days of co-culturing, the number of viable CFSE-positive cells is determined by flow cytometry. (B) Flow cytometry analysis of the mixed HLACs. Indirect killing is determined by gating on live CFSE-positive cells in the mixed cultures. Effector cells are either infected or uninfected cells. […] CFSE-labeled cells mixed with uninfected or infected cells were cultured in the presence of 5 μM AZT alone or together with 250 nM AMD3100. Data represent live CFSE-positive cells 6 days after co-culture with infected or uninfected effector cells. […] The absolute numbers of viable CFSE-positive CD4 and CD8 T-cells and B cells were determined. Percentages are normalized to the number of viable CFSE-positive cells co-cultured with uninfected cells in the presence of AZT, as depicted by (*). Error bars represent standard deviations of three samples from the same donor. […] See also FIG. 3.
(§1) Human tonsil or splenic tissues from routine tonsillectomies were obtained from the National Disease Research Interchange and the Cooperative Human Tissue Network and processed as previously described (Jekle et al., 2003, J Virol 77:5846-5854). In brief, tonsils or spleen were minced, passed through a 40-μm cell strainer, and cultured in 96-well U-bottomed polystyrene plates (2×10^6 cells/well) in medium (200 μl/well) consisting of RPMI 1640 supplemented with 15% heat-inactivated fetal bovine serum, 100 μg/ml gentamicin, 200 μg/ml ampicillin, 1 mM sodium pyruvate, 1% nonessential amino acids (Mediatech), 2 mM L-glutamine, and 1% fungizone (Invitrogen). All HIV-1 infections were carried out with 20-50 ng of HIV-1 p24^gag. Cells were incubated with the virus for 12-16 h, washed extensively, and supplemented with fresh medium. After day 5, infections were monitored by measuring p24gag levels in the culture medium using a FLAQ assay (Hayden et al., 2003, AIDS 17:629-631). Infected and uninfected cultures were manipulated as described for individual experiments. In “indirect killing” assays, unless otherwise stated, drugs were used at the following concentrations: 5 μM AZT; 250 nM AMD3100; 10 μg/ml T20; 100 nM Efavirenz; 1 μM Nevirapine; 30 μM Raltegravir; 60 μM 118-D-24; 5 μM Amprenavir; 5 μM Saquinavir; 5 μM Indinavir. CFSE-labeled cells were activated with PHA (5 μg/ml) and IL-2 (20 ng/ml) 2 days before mixing with effector cells.
Uninfected cells (5×10^6/ml) were labeled with 1 μM CFSE (Molecular Probes C1157), treated with 5 μM AZT for 24 h, and co-cultured with effector cells. CFSE readily diffuses into cells, where intracellular esterases cleave the acetate groups, converting it to a fluorescent, membrane-impermeable dye.

[3] = test system: SupT1 CD4 T leukemic cells; assay: Syncytia formation in NL4-3-infected SupT1 cells; format: cell-based; conditions: 5 μM protease inhibitor, 2.5 days
Protocol: (A) The spinoculation procedure. (B) Flow cytometry of viable CD4 versus CD8-T-cells in HLAC three days after spinoculation in the presence of the indicated drugs. Data represent live-gated cells, based on the forward-scatter versus side-scatter profile of the complete culture. Of note, apoptotic cells were included in the analysis of caspases activity and cytokine expression (FIG. 10E, F). Drugs concentrations: AZT 5 μM; Efavirenz 100 nM; AMD3100 250 nM; T20 10 μg/ml. The data are representative results of six independent experiments with six different donors. […] (C) Highly permissive SupT1 CD4 T leukemic cells were infected with NL4-3 and cultivated for 3 days to allow substantial infection but not syncytia formation. […] After 2.5 days of additional culture, the extent of syncytia formation in each sample was evaluated by light microscopy. […] Results are representative of three independent experiments.

[4] = test system: HIV-1 reverse transcription products; assay: Taqman QPCR of HIV-1 reverse transcription products in infected CD4 T-cells; format: cell-based, human; conditions: 16 hours after infection with NL4-3, versus untreated cells
Protocol: Fresh HLACs were washed once with PBS and resuspended with PBS containing 5 mM EDTA and 2% fetal bovine serum. CD4 T-cells were isolated from HLACs by positive selection on CD4 microbeads (Miltenyi) and cultured overnight in 96-well U-bottomed plates (1×10^6 cells/well) as described above, and AZT was added to the indicated cell samples. Next day, the rest of the drugs were added to the indicated cell samples at concentrations as described above. Cells were chilled on ice for 15 min and DNAse-treated (Ambion, 60 U/ml, 1 hour, 37° C.) NL4-3 or Δvif NL4-3 virions (200 ng/well) were added. After a 1 hour incubation with virions on ice, cells were spinoculated at 1200 g for 2 hours at 4° C., incubated at 37° C. for 2 hours, washed three times with cold PBS, and resuspended in fresh RPMI with the indicated drugs. Eight or 16 hours after spinoculation, cell pellets were frozen at −80° C. Total DNA was purified from each cell pellet with a DNAse kit (Qiagen). Primer and probe sequences used to detect reverse transcription products are provided herein. QPCR reactions were performed in triplicates in TaqMan universal PCR master mix using each primer at 3.75 μM and probe at 2.5 μM. After 15 minutes at 95° C., reactions underwent 50 cycles of 15 sec at 95° C. followed by 1 min at 60° C. in an ABI Prism 7900HT (Applied Biosystems).
Next the status of HIV-1 reverse transcription in tonsillar CD4 T-cells after infection was examined. […] Taqman-based quantitative real-time PCR (QPCR) was used to quantify the synthesis of reverse transcription products in isolated CD4 T-cells from HLAC 16 hours after infection with NL4-3. Specific QPCR primers and probes were designed (Table 1) to monitor sequential steps in reverse transcription including generation of strong-stop DNA, first template exchange (Nef), and DNA strand elongation (Env) (FIG. 10A)

[5] = test system: CFSE-labeled spleen CD4 T-cells; assay: Indirect killing assay with CFSE-labeled human spleen cells; format: cell-based; conditions: HIV-infected spleen HLAC effectors
Protocol: (B and C) Fresh human spleen from a single donor were processed into HLAC and assessed in indirect cell killing assay as described in FIG. 2A. Effector spleen HLAC were stimulated with PHA and IL-2 48 hours before mixing, but not during co-culturing with CFSE-labeled cells. Non-activated resting CFSE-labeled spleen cells were co-cultured with NL4-3-infected or uninfected effector cells in the presence or absence of the following drugs, AZT (5 μM), AMD3100 (250 nM), Efavirenz (100 nM), or Raltegravir (30 μM), as indicated. […] Percentages were normalized to the number of viable CFSE-positive spleen CD4 T-cells co-cultured with uninfected effectors in the presence of AZT, as depicted by (*). Error bars represent standard error of the mean for three experiments performed with three different spleen and tonsil donors.
as §1
Uninfected cells (5×10^6/ml) were labeled with 1 μM CFSE (Molecular Probes C1157), treated with 5 μM AZT for 24 h, and co-cultured with effector cells. CFSE readily diffuses into cells, where intracellular esterases cleave the acetate groups, converting it to a fluorescent, membrane-impermeable dye. […] To quantify indirect killing, mixed (CFSE-labeled+effector) cultures were washed in FACS buffer (PBS supplemented with 2 mM EDTA and 2% fetal bovine serum), stained with PE-conjugated anti-CD4, PerCP-conjugated anti-CD19, and APC-conjugated anti-CD8 (all from BD Pharmingen) and fixed in 1% paraformaldehyde. To determine the absolute numbers of the viable CFSE-labeled cells, a standard number of fluorescent beads (Flow-Count Fluorospheres, Beckman Coulter) was added to each cell-suspension sample before data acquisition. Data were collected on a FACS Calibur (BD Biosciences) and analyzed with Flowjo software (Treestar). The level of indirect killing was defined by sequential gating beginning with forward scatter versus side scatter to select live lymphocytes, subgating on the CFSE-positive population, and calculating the numbers of CD4 or CD8 T or B cells, divided by the number of fluorescent beads acquired.

[6] = test system: human monocytes; conditions: LPS and ATP; cited from earlier work
[7] = test system: ISRE-GFP H35 cells; assay: ISRE-GFP H35 reporter cells; format: cell-based, rat; conditions: 1 μg transfected
Protocol: Hepatocyte-derived reporter ISRE-GFP H35 cells were maintained as previously described (King et al., 2007, Lab Chip 7:77-85; Patel et al., 2009, Proc Natl Acad Sci USA 106:12867-12872). For microscopic imaging, ISRE-GFP reporter H35 cells were cultured on 35 mm glass bottom culture dishes (MatTeck) and were treated with AZT (5 μM), Efavirenz (100 nM), or Raltegravir (30 μM) 12 hours before infection. Cells were then infected with 2 μg/ml of replication competent VSV-G pseudotyped NL4-3. After 48 hours incubation at 37° C., cells were fixed in 2% paraformaldehyde at 25° C. for 1 hour, washed with PBS and stained with 10 μg/ml Hoechst 33342 (Invitrogen) and 1 μg/ml 7-AAD (eBioscience) for 15 min at 25° C. Cells were washed 3 times with PBS and were analyzed with an Axio observer Z1 microscope (Zeiss) equipped with an EC Plan NEOFLUAR 10×/0.3 PHM27 objective, filter sets 38HE, 45, and 49, and an Axiocam MRM REV 3.

Q: Which “nigericin-induced IL-1β release after pre-treatment with caspase inhibitor” value [1] does the source give for `COC(=O)C[C@H](NC(=O)[C@H](C)NC(=O)[C@@H](NC(=O)[C@H](Cc1ccc(O)cc1)NC(=O)OCc1ccccc1)C(C)C)C(=O)CF` [Z-YVAD] here?
A: blocked

Q: Which “death of abortively infected CD4 T-cells with caspase inhibitors” value ([2]; 20 μM caspase inhibitor, AZT 5 μM) does the source give for `CC(NC(=O)[C@H](Cc1ccccc1)NC(=O)OCc1ccccc1)C(=O)CF` (some centres unmarked) [Z-FA-FMK] here?
A: persisted

Q: Which results are given for `CC(C)(C)NC(=O)[C@@H]1CN(Cc2cccnc2)CCN1C[C@@H](O)C[C@@H](Cc1ccccc1)C(=O)N[C@H]1c2ccccc2C[C@H]1O` [Indinavir]?
A: syncytia formation / cell-cell fusion [3]: do not block syncytia formation; indirect killing (loss) of resting CFSE-labeled CD4 T-cells [2]: inhibit indirect killing

Q: For `Cc1nnc(C(=O)NC(C)(C)c2nc(C(=O)NCc3ccc(F)cc3)c(O)c(=O)n2C)o1` [raltegravir], which “indirect killing (loss) of resting CFSE-labeled CD4 T-cells” value (shortened to “indirect killing (loss)”) [2] is on record?
A: did not prevent abortive infection killing

Q: What about the “reverse transcription products corresponding to strong-stop DNA” value [4] of the same compound?
A: similar

Q: And the “loss of CFSE-labeled spleen CD4 T-cells” value [5]?
A: did not prevent CD4 T-cell killing

Q: Which “indirect killing of CFSE-labeled CD4 T-cells” value ([2]; WEAU 16-8 (R5/X4)-infected effector cells) does the source give for `Cc1ccc(-c2ccc3c(c2)C=C(C(=O)Nc2ccc(C[N+](C)(C)C4CCOCC4)cc2)CCC3)cc1.[Cl-]` [TAK779] here?
A: had no effect

Q: For `CC(C)(C)NC(=O)[C@@H]1C[C@@H]2CCCC[C@@H]2CN1C[C@@H](O)[C@H](Cc1ccccc1)NC(=O)[C@H](CC(N)=O)NC(=O)c1ccc2ccccc2n1` [Saquinavir], which “syncytia formation / cell-cell fusion” value [3] is on record?
A: do not block syncytia formation

Q: And the “indirect killing (loss)” value [2]?
A: inhibit indirect killing

Q: For `CC(C)c1cc(Cl)cc(C(C)C)c1NC(=O)NS(=O)(=O)c1cccc(C(C)O)c1` (centres unmarked) [CP-412,245], which “post-translational processing and secretion of IL-1β” value [6] is on record?
A: inhibited the post-translational processing and secretion of IL-1β

Q: Which “indirect killing (loss)” value [2] does the source give for `Cc1ccnc2c1NC(=O)c1cccnc1N2C1CC1` [nevirapine] here?
A: blocked indirect killing of resting CD4 T-cells as efficiently as AMD3100

Q: For `CC(C)c1cc(Cl)cc(C(C)C)c1NC(=O)NS(=O)(=O)c1cccc(C(C)(C)O)c1` [CP-424,174], which “post-translational processing and secretion of IL-1β” value [6] is on record?
A: inhibited the post-translational processing and secretion of IL-1β

Q: For poly(I:C), which “ISRE-GFP reporter activation by transfected nucleic acid” value [7] is on record?
A: elicited a comparable ISRE-GFP response
